# Activity calls are given as the source filed them.
# Tests used:
# [1] = target: Induced myeloid leukemia cell differentiation protein Mcl-1 (Homo sapiens, UniProt Q07820); type: functional
# [2] = target: T1, Runt-related transcription factor 1/Core-binding factor subunit beta (Homo sapiens, UniProt Q01196+Q13951); assay: disruptors of Runt domain/CBFb-SMMHC interaction – biochemical, FRET, Cerulean-Runt, Venus-CBFb-SMMHC, uHTS, […] (AID 1434); type: protein assay
# [3] = target: T1, Runt-related transcription factor 1/Core-binding factor subunit beta; assay: Runt domain/CBFb-SMMHC interaction disruptors – biochemical, TR-FRET (AID 1438); type: protein assay
# SUMO-activating enzyme = SUMO-activating enzyme (Homo sapiens, UniProt Q9UBT2); assay: blockers of UBC9-mediated SUMO conjugation – biochemical, AlphaScreen, SUMOylation inhibitor project, confirmation (AID 2018); type: functional
# [4] = viability of uninfected HEp-2 cells – cell-based, HTS, cytotoxicity control for RSV inhibitor project, dose response (AID 2410); type: functional; conditions: human respiratory syncytial virus
# [5] = target: T2, Probable nicotinate-nucleotide adenylyltransferase (Staphylococcus aureus (strain N315), UniProt P65502); type: functional, Staphylococcus aureus subsp. aureus N315; conditions: read-out: IC50_Mean;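 on IC50 Mean: confirmatory dose-response retesting of NadD inhibitor hits first found in an ultra-high-throughput screen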
# T2 sequence (P65502 whole entry): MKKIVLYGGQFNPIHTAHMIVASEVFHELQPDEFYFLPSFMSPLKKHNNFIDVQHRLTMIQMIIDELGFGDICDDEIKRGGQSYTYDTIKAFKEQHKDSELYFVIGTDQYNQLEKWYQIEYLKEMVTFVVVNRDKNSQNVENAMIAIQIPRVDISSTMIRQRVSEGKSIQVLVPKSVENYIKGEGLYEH
# Cannabinoid receptor 1 [6] = target: T3, Cannabinoid receptor 1 (Homo sapiens, UniProt P21554); assay: SAR analysis of antagonists of the Cannabinoid Receptor 1 using an Image-Based Assay - Set 4. [Related pubchem assays (depositor defined):AID2013, AID2026]; type: functional
# [7] = target: G-protein coupled receptor 55 (Homo sapiens, UniProt Q9Y2T6); assay: SAR Analysis of Selective Antagonists of GPR55 using an Image-Based Assay - Set 4. [Related pubchem assays (depositor defined):AID2013, AID2026]; type: functional;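 further: antagonism of response to 5 µM lysophosphatidylinositol agonist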
# Cannabinoid receptor 1 [8] = target: T3, Cannabinoid receptor 1; assay: SAR analysis of agonists of the Cannabinoid Receptor 1 using an Image-Based Assay - Set 4. [Related pubchem assays (depositor defined):AID2013, AID2026]; type: functional
# [9] = target: T4, G-protein coupled receptor 35 (Homo sapiens, UniProt Q9HC97); assay: SAR analysis of Antagonists of the GPR35 Receptor using an Image-Based Assay - Set 6. [Related pubchem assays (depositor defined):AID2013, AID2026]; type: functional
# T4 sequence (Q9HC97 whole entry): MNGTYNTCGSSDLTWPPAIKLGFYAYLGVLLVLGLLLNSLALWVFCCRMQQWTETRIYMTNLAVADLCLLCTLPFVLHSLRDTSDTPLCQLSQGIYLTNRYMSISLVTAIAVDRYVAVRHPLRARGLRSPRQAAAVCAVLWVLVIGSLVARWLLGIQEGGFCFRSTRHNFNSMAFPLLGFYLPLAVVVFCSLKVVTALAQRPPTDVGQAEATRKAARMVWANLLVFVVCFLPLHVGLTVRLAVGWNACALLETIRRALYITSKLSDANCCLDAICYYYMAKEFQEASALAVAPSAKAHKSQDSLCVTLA
# Cannabinoid receptor 2 [10] = target: T5, Cannabinoid receptor 2 (Homo sapiens, UniProt P34972); assay: SAR analysis of agonists of the Cannabinoid Receptor 2 using an Image-Based Assay - Set 3. [Related pubchem assays (depositor defined):AID2013, AID2026]; type: functional
# T5 sequence (P34972 whole entry): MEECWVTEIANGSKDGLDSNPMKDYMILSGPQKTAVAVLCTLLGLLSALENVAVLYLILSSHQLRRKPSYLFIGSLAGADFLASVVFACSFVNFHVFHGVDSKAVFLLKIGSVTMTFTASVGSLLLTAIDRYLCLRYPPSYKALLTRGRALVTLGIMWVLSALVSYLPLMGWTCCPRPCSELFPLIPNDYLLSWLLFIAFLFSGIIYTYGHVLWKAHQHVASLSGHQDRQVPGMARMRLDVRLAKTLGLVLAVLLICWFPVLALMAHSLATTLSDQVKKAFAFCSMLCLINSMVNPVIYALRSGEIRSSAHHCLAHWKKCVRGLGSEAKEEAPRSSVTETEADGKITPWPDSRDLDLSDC
# Cannabinoid receptor 2 [11] = target: T5, Cannabinoid receptor 2; assay: SAR analysis of antagonists of the Cannabinoid Receptor 2 using an Image-Based Assay - Set 3. [Related pubchem assays (depositor defined):AID2013, AID2026]; type: functional
# [12] = target: T2, Probable nicotinate-nucleotide adenylyltransferase; type: functional, Staphylococcus aureus subsp. aureus N315
# [13] = target: T4, G-protein coupled receptor 35; assay: SAR analysis of Agonists of the GPR35 Receptor using an Image-Based Assay - Set 4. [Related pubchem assays (depositor defined):AID2013, AID2026]; type: functional
# [14] = Intein inhibitors as potential Tuberculosis drugs, a cytotoxicity screen. [Related pubchem assays (depositor defined):AID2221, AID2223, AID434968, AID435010, AID449749, AID449750, AID489010]; type: functional
# [15] = target: T6, Replicative DNA helicase DnaB (Mycobacterium tuberculosis, UniProt P9WMR3); assay: DnaB intein splicing inhibitors, dose response, biochemical, cell-free fluorescence (AID 449749); type: functional
# T6 sequence (P9WMR3 whole entry): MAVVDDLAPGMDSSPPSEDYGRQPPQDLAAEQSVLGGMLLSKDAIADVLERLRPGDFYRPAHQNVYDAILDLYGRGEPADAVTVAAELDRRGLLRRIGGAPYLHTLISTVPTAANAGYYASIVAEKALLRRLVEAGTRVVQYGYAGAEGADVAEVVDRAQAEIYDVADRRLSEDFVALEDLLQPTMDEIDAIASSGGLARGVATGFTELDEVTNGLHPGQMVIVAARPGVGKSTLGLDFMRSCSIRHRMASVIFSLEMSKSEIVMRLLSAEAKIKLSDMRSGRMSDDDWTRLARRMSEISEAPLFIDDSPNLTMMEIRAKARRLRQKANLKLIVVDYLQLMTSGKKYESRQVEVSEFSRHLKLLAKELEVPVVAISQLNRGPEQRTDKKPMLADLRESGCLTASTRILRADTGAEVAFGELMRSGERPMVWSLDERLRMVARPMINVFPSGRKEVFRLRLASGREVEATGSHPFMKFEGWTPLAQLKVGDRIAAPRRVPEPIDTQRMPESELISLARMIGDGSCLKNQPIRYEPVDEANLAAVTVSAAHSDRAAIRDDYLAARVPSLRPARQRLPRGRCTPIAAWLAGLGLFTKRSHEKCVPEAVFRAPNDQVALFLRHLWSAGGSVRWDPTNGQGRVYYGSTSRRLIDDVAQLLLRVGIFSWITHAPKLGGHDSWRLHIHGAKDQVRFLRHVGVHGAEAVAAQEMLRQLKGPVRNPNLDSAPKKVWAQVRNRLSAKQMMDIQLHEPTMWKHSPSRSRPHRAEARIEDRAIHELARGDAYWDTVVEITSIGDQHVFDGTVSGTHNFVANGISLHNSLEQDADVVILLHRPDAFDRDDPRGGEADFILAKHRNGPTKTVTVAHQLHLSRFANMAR
# Fatty acid synthase [16] = target: T7, Fatty acid synthase (Homo sapiens, UniProt P49327); assay: inhibition of human FAS-TE enzyme activity – biochemical, endpoint fluorescence intensity, uHTS hits, dose response (AID 624327); type: functional;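 further: fluorescence from hydrolysis of an O-methyl fluorescein acyl ester substrate by the enzyme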
# T7 sequence (P49327 whole entry): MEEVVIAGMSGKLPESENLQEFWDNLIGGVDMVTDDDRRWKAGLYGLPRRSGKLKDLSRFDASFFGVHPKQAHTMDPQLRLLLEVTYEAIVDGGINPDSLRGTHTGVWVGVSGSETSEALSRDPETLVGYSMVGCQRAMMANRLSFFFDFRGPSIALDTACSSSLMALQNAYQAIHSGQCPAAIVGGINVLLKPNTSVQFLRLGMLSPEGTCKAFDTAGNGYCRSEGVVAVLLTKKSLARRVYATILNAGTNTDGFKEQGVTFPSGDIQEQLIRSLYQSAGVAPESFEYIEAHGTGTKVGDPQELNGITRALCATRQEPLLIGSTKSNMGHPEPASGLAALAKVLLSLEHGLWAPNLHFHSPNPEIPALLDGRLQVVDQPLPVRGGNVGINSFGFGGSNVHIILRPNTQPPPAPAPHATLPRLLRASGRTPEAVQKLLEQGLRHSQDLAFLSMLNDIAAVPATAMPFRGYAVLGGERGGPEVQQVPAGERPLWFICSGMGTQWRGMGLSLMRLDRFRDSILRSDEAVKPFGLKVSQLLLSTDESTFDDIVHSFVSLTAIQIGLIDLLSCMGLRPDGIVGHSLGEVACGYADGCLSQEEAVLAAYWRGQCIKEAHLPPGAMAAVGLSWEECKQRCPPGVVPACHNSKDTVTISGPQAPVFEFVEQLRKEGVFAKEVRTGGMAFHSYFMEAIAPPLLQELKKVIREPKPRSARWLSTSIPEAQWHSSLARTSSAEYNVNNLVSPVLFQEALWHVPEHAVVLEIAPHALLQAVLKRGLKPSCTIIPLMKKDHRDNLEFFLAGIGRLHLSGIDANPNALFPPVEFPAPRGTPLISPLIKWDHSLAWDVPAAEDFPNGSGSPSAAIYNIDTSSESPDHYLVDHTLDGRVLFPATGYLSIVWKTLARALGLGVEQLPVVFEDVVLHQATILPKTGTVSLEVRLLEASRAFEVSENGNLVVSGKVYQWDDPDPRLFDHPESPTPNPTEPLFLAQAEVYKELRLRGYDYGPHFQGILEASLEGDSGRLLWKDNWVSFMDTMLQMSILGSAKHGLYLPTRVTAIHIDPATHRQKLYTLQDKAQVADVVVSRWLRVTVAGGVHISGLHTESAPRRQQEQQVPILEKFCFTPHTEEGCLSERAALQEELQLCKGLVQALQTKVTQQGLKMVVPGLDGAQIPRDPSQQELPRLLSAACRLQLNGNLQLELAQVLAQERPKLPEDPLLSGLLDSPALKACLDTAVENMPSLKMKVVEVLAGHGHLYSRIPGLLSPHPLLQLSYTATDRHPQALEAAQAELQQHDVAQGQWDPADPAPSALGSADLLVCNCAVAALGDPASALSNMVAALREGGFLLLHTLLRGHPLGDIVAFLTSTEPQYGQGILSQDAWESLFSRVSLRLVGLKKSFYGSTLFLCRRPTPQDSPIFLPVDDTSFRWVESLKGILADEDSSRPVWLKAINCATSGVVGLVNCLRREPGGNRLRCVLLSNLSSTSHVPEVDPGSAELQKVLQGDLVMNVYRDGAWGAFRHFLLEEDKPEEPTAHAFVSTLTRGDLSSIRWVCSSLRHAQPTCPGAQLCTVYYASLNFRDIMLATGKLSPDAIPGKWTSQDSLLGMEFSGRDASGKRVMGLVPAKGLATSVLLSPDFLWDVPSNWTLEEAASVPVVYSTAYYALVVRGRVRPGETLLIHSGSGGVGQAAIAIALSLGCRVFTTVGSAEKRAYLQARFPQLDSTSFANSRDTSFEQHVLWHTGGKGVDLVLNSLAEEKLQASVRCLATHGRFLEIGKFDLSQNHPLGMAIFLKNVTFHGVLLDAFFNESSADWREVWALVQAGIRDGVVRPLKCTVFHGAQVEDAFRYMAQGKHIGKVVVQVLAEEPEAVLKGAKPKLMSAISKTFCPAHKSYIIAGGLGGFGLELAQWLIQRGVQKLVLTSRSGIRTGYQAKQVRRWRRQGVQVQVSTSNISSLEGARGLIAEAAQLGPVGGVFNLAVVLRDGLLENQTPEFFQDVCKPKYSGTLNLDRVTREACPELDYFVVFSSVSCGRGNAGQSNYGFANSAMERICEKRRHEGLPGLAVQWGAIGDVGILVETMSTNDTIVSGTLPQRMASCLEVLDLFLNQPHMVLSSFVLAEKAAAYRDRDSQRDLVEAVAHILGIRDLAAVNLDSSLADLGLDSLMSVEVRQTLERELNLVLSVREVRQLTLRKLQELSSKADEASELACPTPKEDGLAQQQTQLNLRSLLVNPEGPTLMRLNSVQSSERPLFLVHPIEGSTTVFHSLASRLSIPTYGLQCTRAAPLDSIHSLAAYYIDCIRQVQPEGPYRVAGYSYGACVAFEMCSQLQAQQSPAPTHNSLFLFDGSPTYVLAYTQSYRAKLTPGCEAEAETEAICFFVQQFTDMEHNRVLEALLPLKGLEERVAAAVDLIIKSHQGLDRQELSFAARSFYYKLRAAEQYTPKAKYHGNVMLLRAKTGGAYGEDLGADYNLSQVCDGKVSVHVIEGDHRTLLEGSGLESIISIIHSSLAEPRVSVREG
# [17] = Luminescence Cell-Based Dose Retest to Confirm Inhibitors of Cancer Stem Cells. [Related pubchem assays (depositor defined):AID2717, AID2721]; type: functional; conditions: Homo sapiens
# Protein RecA = target: T8, Protein RecA (Mycobacterium tuberculosis, UniProt P9WHJ3); assay: Fluorescence Cell-Free Homogeneous Dose Retest to Identify Inhibitors of RecA-Intein Splicing Activity. [Related pubchem assays (depositor defined):AID2097, AID2223, AID489010, AID492950]; type: functional
# T8 sequence (P9WHJ3 whole entry): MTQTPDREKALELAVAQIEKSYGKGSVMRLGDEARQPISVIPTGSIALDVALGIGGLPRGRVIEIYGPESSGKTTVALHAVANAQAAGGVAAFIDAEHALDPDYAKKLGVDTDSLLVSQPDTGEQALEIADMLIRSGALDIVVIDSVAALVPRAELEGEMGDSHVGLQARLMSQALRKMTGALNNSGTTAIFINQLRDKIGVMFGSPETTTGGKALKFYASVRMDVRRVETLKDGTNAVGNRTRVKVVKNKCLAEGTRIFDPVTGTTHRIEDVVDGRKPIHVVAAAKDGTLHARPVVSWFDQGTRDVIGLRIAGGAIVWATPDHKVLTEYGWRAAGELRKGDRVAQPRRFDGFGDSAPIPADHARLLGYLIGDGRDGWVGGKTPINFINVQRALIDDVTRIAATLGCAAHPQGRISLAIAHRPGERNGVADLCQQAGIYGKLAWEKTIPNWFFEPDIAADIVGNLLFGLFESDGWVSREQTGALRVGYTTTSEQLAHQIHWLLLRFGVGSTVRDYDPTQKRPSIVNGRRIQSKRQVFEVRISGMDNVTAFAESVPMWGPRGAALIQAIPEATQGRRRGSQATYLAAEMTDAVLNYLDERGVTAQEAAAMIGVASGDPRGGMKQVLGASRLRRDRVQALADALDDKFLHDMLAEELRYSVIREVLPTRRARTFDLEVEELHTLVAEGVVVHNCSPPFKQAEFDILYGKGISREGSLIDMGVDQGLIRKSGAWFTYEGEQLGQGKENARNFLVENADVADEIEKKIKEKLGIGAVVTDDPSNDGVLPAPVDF
# Fatty acid synthase [18] = target: T7, Fatty acid synthase; assay: inhibition of human FAS-TE enzyme activity – biochemical, kinetic fluorescence intensity, dose response (AID 624326); type: functional;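 further: rate of fluorescence rise from hydrolysis of a fluorogenic O-methyl fluorescein ester substrate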
# [19] = target: T9, E3 ubiquitin-protein ligase XIAP (Homo sapiens, UniProt P98170); assay: Counter Screen using XIAP-Bir3 of the Chemical Antagonists of IAP-family anti-apoptotic proteins confirmation assay. [Related pubchem assays (depositor defined):AID1018, AID1449, AID1513, AID1638, AID1749, AID1750, AID488957, AID488963]
# T9 sequence (P98170 whole entry): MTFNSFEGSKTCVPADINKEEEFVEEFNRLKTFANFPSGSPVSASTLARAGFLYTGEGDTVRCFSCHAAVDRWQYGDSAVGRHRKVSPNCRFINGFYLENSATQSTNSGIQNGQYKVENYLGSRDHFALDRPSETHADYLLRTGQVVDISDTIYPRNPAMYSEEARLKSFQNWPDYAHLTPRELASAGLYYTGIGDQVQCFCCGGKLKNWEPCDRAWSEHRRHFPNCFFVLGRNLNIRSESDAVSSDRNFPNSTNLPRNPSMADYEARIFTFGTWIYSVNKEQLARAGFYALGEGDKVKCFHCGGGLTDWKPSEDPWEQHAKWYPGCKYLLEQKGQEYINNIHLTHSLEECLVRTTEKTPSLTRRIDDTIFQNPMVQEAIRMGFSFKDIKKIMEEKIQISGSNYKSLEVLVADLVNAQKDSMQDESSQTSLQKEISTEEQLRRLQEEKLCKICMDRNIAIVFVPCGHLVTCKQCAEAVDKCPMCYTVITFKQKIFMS
# [20] = target: T9, E3 ubiquitin-protein ligase XIAP; assay: Chemical Antagonists of IAP-family anti-apoptotic proteins confirmation. [Related pubchem assays (depositor defined):AID1018, AID1513, AID1514, AID1638, AID1749, AID1750, AID488957, AID488963]
# Leucine aminopeptidase = target: T10, Leucine aminopeptidase (Plasmodium falciparum 3D7, UniProt Q8IL11); assay: P. falciparum M17LAP inhibitors, primary screen, biochemical, fluorogenic H-Leu-NHMec substrate, 1536-well (AID 1619); type: functional
# T10 sequence (Q8IL11 whole entry): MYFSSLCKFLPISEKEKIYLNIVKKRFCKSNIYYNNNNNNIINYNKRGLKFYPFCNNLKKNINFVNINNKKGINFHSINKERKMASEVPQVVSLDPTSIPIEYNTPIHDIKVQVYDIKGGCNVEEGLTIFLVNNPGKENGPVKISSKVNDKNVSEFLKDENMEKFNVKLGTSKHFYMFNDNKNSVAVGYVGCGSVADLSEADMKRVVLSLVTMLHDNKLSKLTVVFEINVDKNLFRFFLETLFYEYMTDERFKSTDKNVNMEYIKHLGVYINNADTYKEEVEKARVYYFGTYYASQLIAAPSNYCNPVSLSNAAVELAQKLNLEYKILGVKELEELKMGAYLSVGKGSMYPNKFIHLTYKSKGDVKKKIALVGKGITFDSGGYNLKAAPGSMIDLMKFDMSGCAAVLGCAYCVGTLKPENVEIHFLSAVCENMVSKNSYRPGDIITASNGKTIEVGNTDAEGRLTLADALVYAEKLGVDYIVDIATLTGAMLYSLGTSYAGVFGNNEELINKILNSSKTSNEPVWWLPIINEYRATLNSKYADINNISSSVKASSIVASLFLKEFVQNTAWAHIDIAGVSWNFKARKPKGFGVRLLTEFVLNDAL
# Sequence of Induced myeloid leukemia cell differentiation protein Mcl-1 (Q07820 whole entry, the tested form may be a part): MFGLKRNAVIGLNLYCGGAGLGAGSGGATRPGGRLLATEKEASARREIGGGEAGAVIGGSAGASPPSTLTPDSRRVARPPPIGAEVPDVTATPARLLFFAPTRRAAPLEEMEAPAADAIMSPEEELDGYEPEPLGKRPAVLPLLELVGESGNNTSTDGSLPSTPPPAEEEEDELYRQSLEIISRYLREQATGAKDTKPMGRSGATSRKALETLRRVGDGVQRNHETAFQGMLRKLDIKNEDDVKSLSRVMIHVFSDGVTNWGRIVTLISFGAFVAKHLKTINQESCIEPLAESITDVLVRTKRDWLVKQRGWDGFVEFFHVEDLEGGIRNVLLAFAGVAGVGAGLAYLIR
# T1 sequence (Q01196 whole entry, the tested form may be a part): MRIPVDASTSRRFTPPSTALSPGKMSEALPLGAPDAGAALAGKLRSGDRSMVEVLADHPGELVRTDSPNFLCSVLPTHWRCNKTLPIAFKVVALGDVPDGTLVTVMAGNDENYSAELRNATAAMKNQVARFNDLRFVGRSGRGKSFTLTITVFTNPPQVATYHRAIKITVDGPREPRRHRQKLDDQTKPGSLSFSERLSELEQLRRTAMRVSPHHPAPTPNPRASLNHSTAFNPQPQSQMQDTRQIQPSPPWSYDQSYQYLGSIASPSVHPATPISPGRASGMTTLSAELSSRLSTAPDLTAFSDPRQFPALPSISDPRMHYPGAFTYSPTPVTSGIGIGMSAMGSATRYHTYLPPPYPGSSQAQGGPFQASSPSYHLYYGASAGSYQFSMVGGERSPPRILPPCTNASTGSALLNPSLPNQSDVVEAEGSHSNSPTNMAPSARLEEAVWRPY
# T1 sequence (Q13951 whole entry, the tested form may be a part): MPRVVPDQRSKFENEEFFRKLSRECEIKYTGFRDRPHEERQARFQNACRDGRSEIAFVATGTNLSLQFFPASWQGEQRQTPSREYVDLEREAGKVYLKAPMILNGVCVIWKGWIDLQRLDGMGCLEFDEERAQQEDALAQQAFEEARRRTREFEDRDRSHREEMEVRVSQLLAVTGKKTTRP
compound,measurement,setting,value
Cc1ccc(Cn2c(=N)c(C(=O)NCc3ccco3)cc3c(=O)n4ccccc4nc32)cc1,IC50,[1],3.14 µM (active)
same,IC50,[2],0.475 µM (active)
same,IC50,[3],15.3 µM (active)
CCCCCCC#Cc1cncc(C(=O)NNC(=O)Nc2cc(Cl)cc(Cl)c2)c1,IC50,SUMO-activating enzyme,59.8 µM (active)
same,CC50,[4],9.35 µM (active)
O=C(Nc1ccc(S(=O)(=O)Nc2nccs2)cc1)c1cc(-c2ccncc2)nc2ccccc12,IC50,[5],21.6 µM (active)
same,IC50,[1],1.64 µM (active)
same,IC50,Cannabinoid receptor 1 [6],2.23 µM (active)
same,IC50,[7],> 32 µM (inactive)
same,EC50,Cannabinoid receptor 1 [8],> 32 µM (inactive)
same,IC50,[9],> 32 µM (inactive)
same,EC50,Cannabinoid receptor 2 [10],> 32 µM (inactive)
same,IC50,Cannabinoid receptor 2 [11],> 32 µM (inactive)
same,IC50,[12],6.6 µM (active)
same,EC50,[13],> 32 µM (inactive)
CC(NC(=O)COC(=O)c1cc(NS(=O)(=O)c2ccc(Cl)c([N+](=O)[O-])c2)ccc1O)C1CC2CCC1C2 (centres undefined),CC50,[14],32.7 µM (active)
same,AC50,[15],2.01 µM (active)
same,IC50,Fatty acid synthase [16],11.1 µM (active)
same,AC50,[17],3.17 µM (active)
same,EC50,Protein RecA,3.7 µM (active)
same,IC50,Fatty acid synthase [18],11.7 µM (active)
O=C(O)[C@H](Cc1ccccc1)N1Cc2ccccc2C1=O,IC50,[19],> 200 µM (inactive)
same,IC50,[20],131 µM (inactive)
same,IC50,Leucine aminopeptidase,6.47 µM (active)

# — ChEMBL document CHEMBL1201862, “PubChem BioAssay data set” (2004)
